According to US4975434A, “Antiviral and anticancer cyclopentenyl cytosine” (priority 1989, dated 1990):
Values after ≈ are worked out from the molar mass of the structure shown. Values joined by “and” are separate entries in the source; they are usually repeats but may differ in a detail not shown here. Identical values can stand only once. “Also recorded” adds a separate entry of the source.

How the values were obtained:
[1] = system: Herpes simplex type 1 (TK+), strain E-377; test: Cytopathogenic inhibition test, HSV-1 TK+; type: cell-based
[2] = system: Herpes simplex type 2, strain MS; test: Cytopathogenic inhibition test, HSV-2; type: cell-based
[3] = system: Vaccinia, strain Lederle CA; test: microbe, parasite or virus in culture; type: cell-based
[4] = system: Cytomegalovirus, strain AD 169; test: Cytomegalovirus (CMV) Yield Reduction Assay; type: cell-based
[5] = system: Varicella-Zoster virus, isolate DM625; test: Varicella-Zoster Virus (VZV) Plaque Reduction Assay; type: cell-based
[6] = system: Vesicular Stomatitis virus, strain Indiana; type: cell-based
[7] = system: Yellow Fever virus, strain Asibi; test: microbe, parasite or virus in culture; type: cell-based, Yellow Fever virus; host Vero cells
[8] = system: Influenza (Hong Kong), strain A2 /Aichi/2/68; test: microbe, parasite or virus in culture; type: cell-based, Influenza virus; host MDCK (Madin Darby canine kidney cells)
[9] = system: malignant human promyelocytic leukemia cell line, HL-60; test: Growth inhibition and differentiation of HL-60 cells (nitroblue tetrazolium reduction); type: cell-based
[10] = system: c-myc mRNA; test: c-myc mRNA levels in HL-60 cells; type: cell-based, human
[11] = system: CTP levels; test: CTP levels in normal and tumor tissue of L1210 bearing mice; type: in vivo, mouse; conditions: normal vs tumor tissue of L1210 bearing mice
[12] = system: phosphorylation of uridine; test: Inhibition of uridine phosphorylation
[13] = system: P388 leukemia; test: In vivo antitumor test, P388 leukemia in mice
[14] = system: M5076 sarcoma; test: In vivo antitumor test, M5076 sarcoma in mice
[15] = system: L1210 leukemia; test: In vivo antitumor test, L1210 leukemia in mice; conditions: for Number of 60 day survivors per test group: QD1-9
[16] = system: L1210/ara-C Leukemia; test: In vivo antitumor test, ara-C resistant L1210 leukemia in mice; conditions: for Number of 60 day survivors per test group / % ILS: Table IV; for Number of 60 day survivors per test group: QD1-9; for % ILS: QD1-9, terminated day 60; for activity against ara-C resistant tumor: result in words
[17] = system: A549 Lung; test: Human tumor xenograft in athymic mice, A549 lung (subrenal capsule)
[18] = system: LOX Melanoma; test: Human tumor xenograft in athymic mice, LOX melanoma (intraperitoneal)
[19] = Table II Experiment 1, tumor IP, IP QD1-9, OD 1.0 mg/kg/injection
[20] = Table II Experiment 2, tumor IP, IP QD1-9, OD 1.5 mg/kg/injection
[21] = Table II Experiment 1, tumor IP, IP QD1-13, OD 0.5 mg/kg/injection
[22] = IP L1210, IP treatment daily days 1-9, optimum dose 1 mg/kg/inj (Table I)
[23] = IP L1210, IP treatment every 4th day, days 1, 5, 9, optimum dose 4 mg/kg/inj
[24] = IP L1210, IP treatment every 3 hr x 8, days 1, 5, 9, optimum dose 0.5 mg/kg/inj
[25] = Table II Experiment 1, tumor IP, oral drug administration, OD 2.25 mg/kg/injection
[26] = Table II Experiment 2, tumor IP, IP QD1-9, OD 1.0 mg/kg/injection
[27] = Table II Experiment 2, tumor IP, oral drug administration, OD 2.25 mg/kg/injection
[28] = Table II Experiment 2, tumor SC, IP QD1-9, OD 1.0 mg/kg/injection

## Nc1ccn([C@@H]2C=C(CO)[C@@H](O)[C@H]2O)c(=O)n1 [CPE-C]
[1]; Human alphaherpesvirus 1, Vero cells, strain E-377, inhibition of virus-induced cytopathogenic effects, read-out: ID50 (the source's name)
  IC50: 0.3 µg/mL (≈ 1.25 µM)
[1]; Vero cells, strain E-377
  VR (virus rating): 3.8
[1]; result in words
  antiviral activity: greater than arabinosyl adenine (ara-A); also recorded: Potent activity
[2]; Human alphaherpesvirus 2, Vero cells, strain MS, inhibition of virus-induced cytopathogenic effects, read-out: ID50 (the source's name)
  IC50: 2.7 µg/mL (≈ 11.3 µM)
[2]; Vero cells, strain MS
  VR (virus rating): 2.3
[2]; result in words
  antiviral activity: Potent activity
[3]
  potency relative to ara-A: about 100 times
[3]; Orthopoxvirus vaccinia, Vero, in Chlorocebus sabaeus, read-out: ID50
  IC50: 0.1 µg/mL (≈ 0.418 µM)
[3]; Vero cells, strain Lederle CA
  VR (virus rating): 4.6
[3]; result in words
  antiviral activity: very sensitive to CPE-C; also recorded: Potent activity
[4]; Human betaherpesvirus 5, 144 h, 0.1 μg/ml, MRC5 cells, read-out: Reduction in Virus Yield
  log reduction at 0.1 µg/mL: 0.8
[4]; Human betaherpesvirus 5, 144 h, 0.32 μg/ml, MRC5 cells, read-out: Reduction in Virus Yield
  log reduction at 0.32 µg/mL: 1.3
[4]; Human betaherpesvirus 5, 144 h, 1.0 μg/ml, MRC5 cells, read-out: Reduction in Virus Yield
  log reduction at 1 µg/mL: 1.4
[4]; Human betaherpesvirus 5, 144 h, 3.2 μg/ml, MRC5 cells, read-out: Reduction in Virus Yield
  log reduction at 3.2 µg/mL: 1.5
[4]; Human betaherpesvirus 5, 144 h, 10 μg/ml, MRC5 cells, read-out: Reduction in Virus Yield
  log reduction at 10 µg/mL: 1.9
[4]; Human betaherpesvirus 5, 144 h, 32 μg/ml, MRC5 cells, read-out: Reduction in Virus Yield
  log reduction at 32 µg/mL: 2
[4]; Human betaherpesvirus 5, 144 h, 100 μg/ml, MRC5 cells, read-out: Reduction in Virus Yield
  log reduction at 100 µg/mL: 2
[4]; Human betaherpesvirus 5, 144 h, 320 μg/ml, MRC5 cells, read-out: Reduction in Virus Yield
  log reduction at 320 µg/mL: 5.3
[4]; result in words
  antiviral activity: Potent activity; also recorded: Activity was observed for both compounds
[5]; Human alphaherpesvirus 3, 144 h, 0.01 μg/ml, Huf cells
  inhibition at 0.01 µg/mL: 0%
[5]; Human alphaherpesvirus 3, 144 h, 0.032 μg/ml, Huf cells
  inhibition at 0.032 µg/mL: 3%
[5]; Human alphaherpesvirus 3, 144 h, 0.1 μg/ml, Huf cells
  inhibition at 0.1 µg/mL: 21%
[5]; Human alphaherpesvirus 3, 144 h, 0.32 μg/ml, Huf cells
  inhibition at 0.32 µg/mL: 33%
[5]; Human alphaherpesvirus 3, 144 h, 1.0 μg/ml, Huf cells
  inhibition at 1 µg/mL: 36%
[5]; Human alphaherpesvirus 3, 144 h, 3.2 μg/ml, Huf cells
  inhibition at 3.2 µg/mL: 33%
[5]; Human alphaherpesvirus 3, 144 h, 10 μg/ml, Huf cells
  inhibition at 10 µg/mL: 33%
[5]; Human alphaherpesvirus 3, 144 h, 100 μg/ml, Huf cells
  inhibition at 100 µg/mL: 41%
[5]; Human alphaherpesvirus 3, 144 h, 320 μg/ml, Huf cells
  inhibition at 320 µg/mL: 36%
[5]; result in words
  antiviral activity: Potent activity; also recorded: Activity was observed for both compounds
[6]; L929 cells, strain Indiana, two determinations
  VR (virus rating): 2.4 and 3.0
[6]; minimum toxic drug concentration / ID50, L929 cells
  TI (therapeutic index): 0.6 and 0.4
[6]; result in words
  antiviral activity: Good activity; also recorded: Virus ratings greater than two
[7]; Vero cells, strain Asibi
  VR (virus rating): 0.9
[7]; Yellow fever virus, Vero, read-out: ID50
  IC50: 5.05 µg/mL (≈ 21.1 µM)
[7]; minimum toxic drug concentration / ID50, Vero cells
  TI (therapeutic index): 0.1
[8]
  VR (virus rating): 2.4
  antiviral activity: Good activity; also recorded: Virus ratings greater than two
[8]; MDCK, in Canis lupus familiaris, read-out: ID50
  IC50: 18.2 µg/mL (≈ 76.1 µM)
[9]; continuous exposure for 5 days to 10^-8 to 10^-6 M
  inhibition of cell growth: progressive inhibition of cell growth
[9]; continuous exposure for 5 days to 10^-8 to 10^-6 M, general statement
  differentiation: differentiation to a non-malignant phenotype
[9]; four days after exposure to 10^-7 M
  cell population that reduced nitroblue tetrazolium: 95%
[10]
  inhibition of c-myc mRNA levels: more pronounced than the reduction in total cellular RNA synthesis; also recorded: reduction of c-myc RNA levels
[11]
  tissue specificity of CTP reduction: some tissuespecificity towards the tumor
[12]
  inhibition of phosphorylation of uridine: inhibited competitively the phosphorylation of uridine
[13]; [19]
  % ILS: 88%
  LCK: 0.9 log
[13]; [20]
  % ILS: 69%
  LCK: 0.1 log
[13]; result in words
  activity: only modest activity
[14]; [21]
  % ILS: 5%
  LCK: -2.0 log
[14]; result in words
  activity: inactive
[15]; IP 1.0 mg/kg, QD 1-9, 30-day, 1.5 mg/kg
  long term survivors: Multiple 30-day survivors; also recorded: multiple long term survivors
[15]; [22]
  ILS (median percent increase in life span): 124%
  LCK (approximate log cell kill at the end of treatment): 3.0 log
[15]; [23]
  ILS (median percent increase in life span): 91%
  LCK (approximate log cell kill at the end of treatment): 0.1 log
[15]; [24]
  ILS (median percent increase in life span): 116%
  LCK (approximate log cell kill at the end of treatment): 1.5 log
[15]; QD 1-9, Q4D, Q3Hx8
  schedule dependency: no significant schedule dependency
[15]; Table II Experiment 1, tumor IC (intracerebral), IP QD1-9, OD 1.5 mg/kg/injection
  % ILS: 45%
[15]; [19]
  % ILS: 212%
  LCK: > 6.0 log
  Number of 30 day survivors out of six mice: 4
[15]; [25]
  % ILS: 125%
  LCK: 1.9 log
[15]; Table II Experiment 1, tumor SC, IP QD1-9, OD 1.5 mg/kg/injection
  % ILS: 109%
[15]; Table II Experiment 2, tumor IC (intracerebral), IP QD1-9, OD 1.0 mg/kg/injection
  % ILS: 42%
[15]; [26]
  % ILS: 201%
  LCK: > 5.8 log
  Number of 30 day survivors out of six mice: 2
[15]; [27]
  % ILS: 57%
  LCK: -2.2 log
[15]; [28]
  % ILS: 83%
  Number of 30 day survivors out of six mice: 1
[15]; Table IV, CPE-C 1.0 mg/kg
  Number of 60 day survivors per test group: 1/10
[15]; Table IV, CPE-C 1.0 mg/kg, QD1-9, terminated day 60
  % ILS: 116%
[15]; Table IV, CPE-C 1.5 mg/kg
  Number of 60 day survivors per test group: 2/9
[15]; Table IV, CPE-C 1.5 mg/kg, QD1-9, terminated day 60
  % ILS: 171%
[15]; Table IV, CPE-C 2.25 mg/kg, QD1-9, terminated day 60
  % ILS: 146%
[15]; in vivo antitumor experiments
  potency relative to carbodine, in vivo antitumor: A similar potency difference
[15]; initial in vivo tests
  activity and potency relative to carbodine: significantly greater levels of activity and potency than carbodine
[15]; intracerebral L1210, text
  ILS: about 40%
[15]; standard L1210 leukemia
  activity, head to head comparison with 3DU: significantly better
[16]; CPE-C 1.0 mg/kg
  Number of 60 day survivors per test group: 6/10
  % ILS: > 650%
[16]; CPE-C 1.5 mg/kg
  Number of 60 day survivors per test group: 5/9
  % ILS: > 650%
[16]; CPE-C 2.25 mg/kg
  Number of 60 day survivors per test group: 6/10
  % ILS: > 650%
[16]
  activity against ara-C resistant tumor: producing multiple cures against the resistant tumor; also recorded: collaterally sensitive
[16]; listed as cyclopentenyl cytosine
  activity against ara-C resistant tumor: significant antitumor activity
[17]
  growth inhibition: 100%
[17]; A549 experiments 1 and 2, 1.5 and 2.0 mg/kg/injection, each group of six mice
  Toxicity: weight loss and deaths: weight loss and one or two deaths
[17]; Table III Experiment 1, SRC, IP QD1-9, OD 1.5 mg/kg/injection, day 0 to 11
  % Tumor Inhibition (negative value denotes tumor regression): -59%
[17]; Table III Experiment 2, SRC, IP QD1-9, OD 2.0 mg/kg/injection, day 0 to 11
  % Tumor Inhibition: 92%
[18]; 2.25 mg/kg, QD 1-9
  tumor cell kill: two-log tumor cell kill
[18]; LOX xenograft
  potency relative to 3DU: about 100 times
[18]; Table III Experiment 1, tumor IP, IP QD1-9, OD 1.0 mg/kg/injection
  % ILS: 119%
[18]; Table III Experiment 2, tumor IP, IP QD1-9, OD 2.25 mg/kg/injection
  % ILS: 80%
[18]; Table IV, CPE-C 1.5 mg/kg, QD1-9
  % ILS: 58%
[18]; Table IV, CPE-C 2.25 mg/kg, QD1-9
  % ILS: 80%
[18]; in vivo
  difference in tumor burden between CPE-C and 3DU: five-log difference in tumor burden
[18]; intraperitoneally implanted
  increase in life span: about 100%
[18]; result in words
  activity: Good activity
